Data: US7205295B2, “Benzoxazin-3-ones and derivatives thereof as therapeutic agents” (Warner-Lambert Company LLC, priority 2002, dated 2007)

Target: T1, PI3Kγ (p101/p110γ protein) (Homo sapiens, UniProt P48736)
T1 construct: HA; made in house; host or cells: Spodoptera frugiperda (Sf9) cells, baculovirus co-infection
Test: PI3Kγ In Vitro Kinase Assay
Format: biochemical
Conditions: purified recombinant p101/p110γ with G protein β1/γ2 subunits; 20 μM ATP, 25 μM PIP2; 20 minutes at room temperature
Summary of the method: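 Reactions ran 20 min at room temperature, pairing lipid micelles (25 μM PIP2, 300 μM PE, 0.02% Na-cholate, 10 mM MgCl2) with 20 μM ATP including [γ-32P]ATP. The enzyme was recombinant p101/p110γ (2.7 nM) with G protein β1/γ2 (57.7 nM). [32P]PIP3 product was stopped with H3PO4, filtered and scintillation counted.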

T1 sequence (P48736 whole entry, species assumed): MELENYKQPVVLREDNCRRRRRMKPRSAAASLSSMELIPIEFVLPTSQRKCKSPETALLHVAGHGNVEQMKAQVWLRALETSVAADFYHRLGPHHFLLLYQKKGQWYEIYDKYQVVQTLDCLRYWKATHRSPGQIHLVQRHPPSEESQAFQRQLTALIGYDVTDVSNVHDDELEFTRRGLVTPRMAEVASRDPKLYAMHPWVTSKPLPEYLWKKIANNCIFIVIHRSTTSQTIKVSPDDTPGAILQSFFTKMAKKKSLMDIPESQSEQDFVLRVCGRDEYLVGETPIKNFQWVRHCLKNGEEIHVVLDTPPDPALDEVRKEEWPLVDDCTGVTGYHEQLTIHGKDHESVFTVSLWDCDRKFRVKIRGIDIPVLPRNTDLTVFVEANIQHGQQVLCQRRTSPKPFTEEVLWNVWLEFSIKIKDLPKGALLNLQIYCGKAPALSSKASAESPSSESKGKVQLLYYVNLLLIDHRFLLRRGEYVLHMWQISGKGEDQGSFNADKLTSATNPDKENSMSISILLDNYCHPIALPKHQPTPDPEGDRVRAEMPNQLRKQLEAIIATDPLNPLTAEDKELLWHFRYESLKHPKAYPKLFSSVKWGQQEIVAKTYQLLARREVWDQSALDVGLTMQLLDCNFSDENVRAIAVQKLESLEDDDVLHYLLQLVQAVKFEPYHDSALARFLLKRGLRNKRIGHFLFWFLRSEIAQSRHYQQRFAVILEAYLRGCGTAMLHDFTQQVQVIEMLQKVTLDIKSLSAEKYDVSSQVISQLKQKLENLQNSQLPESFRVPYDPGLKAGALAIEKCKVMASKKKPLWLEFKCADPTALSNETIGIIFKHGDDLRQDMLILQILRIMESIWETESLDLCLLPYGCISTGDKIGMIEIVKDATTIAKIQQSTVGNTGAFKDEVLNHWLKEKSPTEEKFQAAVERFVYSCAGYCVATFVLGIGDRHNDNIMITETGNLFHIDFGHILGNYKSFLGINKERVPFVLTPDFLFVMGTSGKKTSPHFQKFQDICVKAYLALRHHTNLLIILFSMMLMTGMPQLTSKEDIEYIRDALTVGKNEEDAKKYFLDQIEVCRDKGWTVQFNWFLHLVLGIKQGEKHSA
T1 sequence (Q8WYR1 whole entry partner, species assumed): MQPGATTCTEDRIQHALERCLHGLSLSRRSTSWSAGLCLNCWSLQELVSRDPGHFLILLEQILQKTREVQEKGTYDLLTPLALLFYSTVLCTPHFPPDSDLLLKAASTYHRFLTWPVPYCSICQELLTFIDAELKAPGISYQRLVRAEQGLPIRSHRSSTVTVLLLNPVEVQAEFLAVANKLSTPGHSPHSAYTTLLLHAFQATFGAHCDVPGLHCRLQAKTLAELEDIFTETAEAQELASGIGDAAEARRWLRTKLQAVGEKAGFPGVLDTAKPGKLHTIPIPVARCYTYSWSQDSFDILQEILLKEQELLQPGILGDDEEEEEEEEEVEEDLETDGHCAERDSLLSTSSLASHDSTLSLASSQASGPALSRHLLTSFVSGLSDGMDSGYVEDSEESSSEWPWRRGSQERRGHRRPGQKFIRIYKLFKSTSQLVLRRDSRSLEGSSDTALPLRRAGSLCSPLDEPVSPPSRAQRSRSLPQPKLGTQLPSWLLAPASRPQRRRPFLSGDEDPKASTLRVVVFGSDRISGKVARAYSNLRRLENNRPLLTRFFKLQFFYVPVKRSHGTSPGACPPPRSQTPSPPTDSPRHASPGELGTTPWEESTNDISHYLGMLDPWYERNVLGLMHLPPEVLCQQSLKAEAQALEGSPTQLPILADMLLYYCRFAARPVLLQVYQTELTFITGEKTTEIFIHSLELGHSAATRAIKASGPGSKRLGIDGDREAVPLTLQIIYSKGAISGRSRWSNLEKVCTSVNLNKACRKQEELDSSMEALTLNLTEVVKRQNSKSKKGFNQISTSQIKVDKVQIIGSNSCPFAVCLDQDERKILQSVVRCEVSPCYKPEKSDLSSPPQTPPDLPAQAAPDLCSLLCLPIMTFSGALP

IC50 [nM]	SMILES
4	O=C1NC(=S)SC1=Cc1ccc2c(c1)N(CCCOc1ccccc1)C(=O)CO2 [Example 161, 6-(4-Oxo-2-thioxo-thiazolidin-5-ylidenemethyl)-4-(3-phenoxy-propyl)-4H-1,4-benzoxazin-3-one]
53	O=C1NC(=S)SC1=Cc1ccc2c(c1)N(Cc1ccc(C=Cc3ccccc3)cc1)C(=O)CO2 [Example 162, 6-(4-Oxo-2-thioxo-thiazolidin-5-ylidenemethyl)-4-(4-styryl-benzyl)-4H-1,4-benzoxazin-3-one]
30	O=C1NC(=S)SC1=Cc1ccc2c(c1)N(Cc1ccc(OCc3ccccc3)cc1)C(=O)CO2 [Example 163, 4-(4-Benzyloxy-benzyl)-6-(4-oxo-2-thioxo-thiazolidin-5-ylidenemethyl)-4H-1,4-benzoxazin-3-one]
13	O=C1NC(=S)SC1=Cc1ccc2c(c1)N(Cc1cccc(OC(F)F)c1)C(=O)CO2 [Example 164, 4-(3-Difluoromethoxy-benzyl)-6-(4-oxo-2-thioxo-thiazolidin-5-ylidenemethyl)-4H-1,4-benzoxazin-3-one]
15	O=C1NC(=S)SC1=Cc1ccc2c(c1)N(Cc1cccc(SC(F)(F)F)c1)C(=O)CO2 [Example 165, 6-(4-Oxo-2-thioxo-thiazolidin-5-ylidenemethyl)-4-(3-trifluoromethylsulfanyl-benzyl)-4H-1,4-benzoxazin-3-one]
20	O=C1NC(=S)SC1=Cc1ccc2c(c1)N(Cc1ccccc1OC(F)(F)F)C(=O)CO2 [Example 166, 6-(4-Oxo-2-thioxo-thiazolidin-5-ylidenemethyl)-4-(2-trifluoromethoxy-benzyl)-4H-1,4-benzoxazin-3-one]
10	COc1ccc(CN2C(=O)COc3ccc(C=C4SC(=S)NC4=O)cc32)cc1C(F)(F)F [Example 167, 4-(4-Methoxy-3-trifluoromethyl-benzyl)-6-(4-oxo-2-thioxo-thiazolidin-5-ylidenemethyl)-4H-1,4-benzoxazin-3-one]
12	O=C1NC(=S)SC1=Cc1ccc2c(c1)N(Cc1ccc(SC(F)(F)F)cc1)C(=O)CO2 [Example 168, 6-(4-Oxo-2-thioxo-thiazolidin-5-ylidenemethyl)-4-(4-trifluoromethylsulfanyl-benzyl)-4H-1,4-benzoxazin-3-one]
8	O=C1NC(=S)SC1=Cc1ccc2c(c1)N(Cc1ccccc1SC(F)(F)F)C(=O)CO2 [Example 169, 6-(4-Oxo-2-thioxo-thiazolidin-5-ylidenemethyl)-4-(2-trifluoromethylsulfanyl-benzyl)-4H-1,4-benzoxazin-3-one]
9	O=C1NC(=S)SC1=Cc1ccc2c(c1)N(Cc1cccc(Oc3ccccc3)c1)C(=O)CO2 [Example 170, 6-(4-Oxo-2-thioxo-thiazolidin-5-ylidenemethyl)-4-(3-phenoxy-benzyl)-4H-1,4-benzoxazin-3-one]
15	O=C1NC(=S)SC1=Cc1ccc2c(c1)N(CC1CC3C=CC1C3)C(=O)CO2 (centres unmarked) [Example 171, 4-Bicyclo[2.2.1]hept-5-en-2-ylmethyl-6-(4-oxo-2-thioxo-thiazolidin-5-ylidenemethyl)-4H-1,4-benzoxazin-3-one]
145	NC(=O)c1cccc(CN2C(=O)COc3ccc(C=C4SC(=S)NC4=O)cc32)c1 [Example 172, 3-[3-Oxo-6-(4-oxo-2-thioxo-thiazolidin-5-ylidenemethyl)-2,3-dihydro-1,4-benzoxazin-4-ylmethyl]-benzamide]
39	CC(CN1C(=O)COc2ccc(C=C3SC(=S)NC3=O)cc21)c1ccccc1 (centres unmarked) [Example 173, 6-(4-Oxo-2-thioxo-thiazolidin-5-ylidenemethyl)-4-(2-phenyl-propyl)-4H-1,4-benzoxazin-3-one]
2	O=C1NC(=S)SC1=Cc1ccc2c(c1)N(CCCCc1ccccc1)C(=O)CO2 [Example 174, 6-(4-Oxo-2-thioxo-thiazolidin-5-ylidenemethyl)-4-(4-phenyl-butyl)-4H-1,4-benzoxazin-3-one]
4	O=C1NC(=S)SC1=Cc1ccc2c(c1)N(CCCCCc1ccccc1)C(=O)CO2 [Example 175, 6-(4-Oxo-2-thioxo-thiazolidin-5-ylidenemethyl)-4-(5-phenyl-pentyl)-4H-1,4-benzoxazin-3-one]
59	NC(=O)c1ccc(CN2C(=O)COc3ccc(C=C4SC(=S)NC4=O)cc32)cc1 [Example 176, 4-[3-Oxo-6-(4-oxo-2-thioxo-thiazolidin-5-ylidenemethyl)-2,3-dihydro-1,4-benzoxazin-4-ylmethyl]-benzamide]
25	CC(=O)Nc1ccc(CN2C(=O)COc3ccc(C=C4SC(=S)NC4=O)cc32)cc1 [Example 177, N-{4-[3-Oxo-6-(4-oxo-2-thioxo-thiazolidin-5-ylidenemethyl)-2,3-dihydro-1,4-benzoxazin-4-ylmethyl]-phenyl}-acetamide]
4	O=C1NC(=S)SC1=Cc1ccc2c(c1)N(Cc1ccc(Cl)c(Cl)c1)C(=O)CO2 [Example 178, 4-(3,4-Dichloro-benzyl)-6-(4-oxo-2-thioxo-thiazolidin-5-ylidenemethyl)-4H-1,4-benzoxazin-3-one]
7	O=C1NC(=S)SC1=Cc1ccc2c(c1)N(Cc1ccc(Cl)cc1)C(=O)CO2 [Example 179, 4-(4-Chloro-benzyl)-6-(4-oxo-2-thioxo-thiazolidin-5-ylidenemethyl)-4H-1,4-benzoxazin-3-one]
9	O=C1NC(=S)SC1=Cc1ccc2c(c1)N(Cc1ccccc1)C(=O)CO2 [Example 180, 4-Benzyl-6-(4-oxo-2-thioxo-thiazolidin-5-ylidenemethyl)-4H-1,4-benzoxazin-3-one]
10	Cc1cc(C)cc(CN2C(=O)COc3ccc(C=C4SC(=S)NC4=O)cc32)c1 [Example 181, 4-(3,5-Dimethyl-benzyl)-6-(4-oxo-2-thioxo-thiazolidin-5-ylidenemethyl)-4H-1,4-benzoxazin-3-one]
165	COc1ccc(CN2C(=O)COc3ccc(C=C4SC(=S)NC4=O)cc32)cc1 [Example 182, 4-(4-Methoxy-benzyl)-6-(4-oxo-2-thioxo-thiazolidin-5-ylidenemethyl)-4H-1,4-benzoxazin-3-one]
21	O=C1NC(=S)SC1=Cc1ccc2c(c1)N(Cc1ccc([N+](=O)[O-])cc1)C(=O)CO2 [Example 183, 4-(4-Nitro-benzyl)-6-(4-oxo-2-thioxo-thiazolidin-5-ylidenemethyl)-4H-1,4-benzoxazin-3-one]
3	CC(C)(C)c1ccc(CN2C(=O)COc3ccc(C=C4SC(=S)NC4=O)cc32)cc1 [Example 184, 4-(4-tert-Butyl-benzyl)-6-(4-oxo-2-thioxo-thiazolidin-5-ylidenemethyl)-4H-1,4-benzoxazin-3-one]
102	O=C1NC(=S)SC1=Cc1ccc2c(c1)N(Cc1cc(C(F)(F)F)cc(C(F)(F)F)c1)C(=O)CO2 [Example 185, 4-(3,5-Bis-trifluoromethyl-benzyl)-6-(4-oxo-2-thioxo-thiazolidin-5-ylidenemethyl)-4H-1,4-benzoxazin-3-one]
315	O=C1NC(=S)SC1=Cc1ccc2c(c1)N(CC(=O)c1ccc3c(c1)oc1ccccc13)C(=O)CO2 [Example 186, 4-(2-Dibenzofuran-3-yl-2-oxo-ethyl)-6-(4-oxo-2-thioxo-thiazolidin-5-ylidenemethyl)-4H-1,4-benzoxazin-3-one]
